This is an account of results in ChEMBL document CHEMBL1759971, “Substituted phenyl triazoles as selective inhibitors of 11β-Hydroxysteroid Dehydrogenase Type 1” (Bioorg Med Chem Lett, 2011).

The test system of data set [1] is Mus musculus. Put plainly: Inhibition of 11beta-HSD1 in ICR mouse assessed as conversion of [3H]cortisone to [3H]cortisol at 10 mg/kg, po after 4 hrs by scintillation counting. The format is functional.
The target of data set [2] is T1, Nuclear receptor subfamily 1 group I member 2 (Homo sapiens, UniProt O75469).
T1 sequence (O75469 whole entry): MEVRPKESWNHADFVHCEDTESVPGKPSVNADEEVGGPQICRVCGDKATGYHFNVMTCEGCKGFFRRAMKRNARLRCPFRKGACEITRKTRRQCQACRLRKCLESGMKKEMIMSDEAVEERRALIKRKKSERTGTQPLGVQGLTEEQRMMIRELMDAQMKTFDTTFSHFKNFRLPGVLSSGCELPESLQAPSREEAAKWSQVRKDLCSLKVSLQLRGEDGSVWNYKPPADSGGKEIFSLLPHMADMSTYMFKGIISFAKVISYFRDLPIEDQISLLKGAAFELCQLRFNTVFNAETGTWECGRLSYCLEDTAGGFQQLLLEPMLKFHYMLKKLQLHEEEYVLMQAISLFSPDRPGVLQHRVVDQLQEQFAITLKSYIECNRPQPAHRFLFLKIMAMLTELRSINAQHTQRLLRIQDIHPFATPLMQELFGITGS
In words: Agonist activity at PXR. Type of data set: functional.

Data set [3] has as its target T1, Nuclear receptor subfamily 1 group I member 2. In words: Agonist activity at PXR at 10 uM. Type of data set: functional.
The target in data set [4] is 11-beta-hydroxysteroid dehydrogenase 1 (Homo sapiens, UniProt P28845). In words: Inhibition of human 11beta-HSD1 expressed in CHO-K1 cells assessed as conversion of [3H]cortisone to [3H]cortisol by scintillation counting. Type of data set: cell-based.
Chain of 11-beta-hydroxysteroid dehydrogenase 1 (Homo sapiens, UniProt P28845) (P28845 whole entry): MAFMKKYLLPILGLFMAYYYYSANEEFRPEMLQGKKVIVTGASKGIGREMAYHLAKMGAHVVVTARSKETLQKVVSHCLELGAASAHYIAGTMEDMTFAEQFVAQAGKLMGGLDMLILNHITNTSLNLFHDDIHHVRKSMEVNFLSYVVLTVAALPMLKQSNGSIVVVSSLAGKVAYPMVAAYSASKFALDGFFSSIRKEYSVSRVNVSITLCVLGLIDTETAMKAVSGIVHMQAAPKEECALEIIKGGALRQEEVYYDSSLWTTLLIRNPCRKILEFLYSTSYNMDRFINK
Data set [5] concerns the target 11-beta-hydroxysteroid dehydrogenase 1 (Mus musculus, UniProt P50172). Put plainly: Inhibition of mouse 11beta-HSD1 expressed in CHO-K1 cells assessed as conversion of [3H]cortisone to [3H]cortisol by scintillation counting. Type of data set: cell-based.
For data set [6], the system named is Mus musculus. Put plainly: Inhibition of 11beta-HSD1 in ICR mouse assessed as conversion of [3H]cortisone to [3H]cortisol at 10 mg/kg, po after 16 hrs by scintillation counting. The format is functional.
Data set [7] addresses T2, 11-beta-hydroxysteroid dehydrogenase type 2 (Homo sapiens, UniProt P80365).
T2 sequence (P80365 whole entry): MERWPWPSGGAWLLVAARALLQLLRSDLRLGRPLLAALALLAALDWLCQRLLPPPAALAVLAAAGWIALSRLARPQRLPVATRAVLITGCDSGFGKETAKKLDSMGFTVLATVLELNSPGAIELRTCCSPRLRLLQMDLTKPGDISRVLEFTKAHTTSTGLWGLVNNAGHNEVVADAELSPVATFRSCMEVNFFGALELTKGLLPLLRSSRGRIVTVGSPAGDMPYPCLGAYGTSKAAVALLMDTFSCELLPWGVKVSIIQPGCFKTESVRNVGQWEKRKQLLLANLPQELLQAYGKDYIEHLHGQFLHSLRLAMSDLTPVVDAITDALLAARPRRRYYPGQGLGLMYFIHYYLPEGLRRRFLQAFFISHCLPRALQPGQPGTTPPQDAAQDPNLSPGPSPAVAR
Put plainly: Inhibition of human 11beta-HSD2.

Data set [8] has as its target T3, 11-beta-hydroxysteroid dehydrogenase type 2 (Mus musculus, UniProt P51661).
T3 sequence (P51661 whole entry): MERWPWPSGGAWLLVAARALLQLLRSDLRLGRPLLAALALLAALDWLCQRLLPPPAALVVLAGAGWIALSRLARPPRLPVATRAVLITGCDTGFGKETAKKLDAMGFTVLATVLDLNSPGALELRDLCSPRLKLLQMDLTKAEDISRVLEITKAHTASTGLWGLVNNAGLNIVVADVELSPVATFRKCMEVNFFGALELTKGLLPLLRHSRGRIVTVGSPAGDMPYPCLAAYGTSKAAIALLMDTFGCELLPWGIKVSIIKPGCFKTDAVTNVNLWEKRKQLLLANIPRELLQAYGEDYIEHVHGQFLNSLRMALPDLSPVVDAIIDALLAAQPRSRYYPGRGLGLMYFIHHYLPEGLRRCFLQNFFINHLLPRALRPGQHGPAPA
In words: Inhibition of mouse 11beta-HSD2.

The inhibition in vivo is the relative decrease from the control value, in per cent. The term EC50 denotes the concentration giving half of the maximal effect. A low value points to greater potency. Usually IC50 stands for the concentration that inhibits the measured activity by half.

Chain of 11-beta-hydroxysteroid dehydrogenase 1 (Mus musculus, UniProt P50172) (P50172 whole entry): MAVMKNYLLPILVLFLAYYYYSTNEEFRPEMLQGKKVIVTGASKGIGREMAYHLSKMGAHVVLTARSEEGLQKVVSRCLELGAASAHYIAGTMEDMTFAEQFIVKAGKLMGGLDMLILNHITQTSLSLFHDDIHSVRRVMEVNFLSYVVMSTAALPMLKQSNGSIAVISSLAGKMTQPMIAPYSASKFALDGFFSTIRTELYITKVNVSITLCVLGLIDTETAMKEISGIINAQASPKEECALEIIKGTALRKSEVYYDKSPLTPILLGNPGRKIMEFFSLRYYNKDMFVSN

On to `Cn1c(-c2ccc(-c3cnccn3)cc2F)nnc1C1(c2ccc(Cl)cc2)CCC1`, for which the inhibition in vivo at 10 mg/kg is 91% in data set [1] and 81% in data set [6]. The compound further displayed an EC50 in data set [2] of 4.8 µM. For the same compound, the Activity in data set [3] turned out to be 74%. The IC50 was 2.8 nM in data set [4], 1.7 nM in data set [5], over 4 µM in data set [7] and over 4 µM in data set [8].
Turning to `CC(=O)Nc1ccc(-c2nnc(C3(c4ccc(Cl)cc4)CCC3)n2C)cc1`, the figures for the inhibition in vivo at 10 mg/kg in data set [1] and in data set [6] were 59% and 10%, respectively. Also, the EC50 in data set [2] is over 30 µM. In addition, the Activity in data set [3] was determined as 21%. Besides, the IC50 is 5.8 nM in data set [4], 9.1 nM in data set [5], over 4 µM in data set [7] and over 4 µM in data set [8].
On to `Cn1c(-c2ccc(NC(=O)c3cnccn3)cc2)nnc1C1(c2ccc(Cl)cc2)CCC1`, for which the inhibition in vivo at 10 mg/kg in data set [1] stood at 67%; in data set [6], 5%. In data set [2], this compound showed an EC50 of over 30 µM. In data set [3], the Activity was -2.5%. The IC50 in data set [4] was 69 nM; in data set [5], 11 nM; in data set [7] it was over 4 µM; in data set [8], over 4 µM.
As for `Cn1c(-c2ccc(-c3cncnc3)cc2)nnc1C1(c2ccc(Cl)cc2)CCC1`, the inhibition in vivo at 10 mg/kg in data set [1] is 46%; in data set [6], -4%. In data set [2], this compound had an EC50 of over 30 µM. For the same compound, the Activity in data set [3] was 7%. For the same compound, the IC50 was 1.5 nM in data set [4], 2.6 nM in data set [5], over 4 µM in data set [7] and over 4 µM in data set [8].
`Cn1c(-c2ccc(-c3ccsc3)cc2)nnc1C1(c2ccc(Cl)cc2)CCC1`: the inhibition in vivo at 10 mg/kg in data set [1] was determined as 81%; in data set [6], 33%. The compound also registered an EC50 in data set [2] of 3 µM. The Activity in data set [3] stood at 78%. The IC50 was under 1 nM in data set [5] and 1.3 µM in data set [7].
With `Cn1c(-c2ccc(-c3cnccn3)cc2OC(F)F)nnc1C1(c2ccc(Cl)cc2)CCC1`, the inhibition in vivo at 10 mg/kg in data set [1] was determined as 88%; in data set [6], 14%. The compound also yielded a concentration for a half-maximal effect (EC50) in data set [2] of over 30 µM. In addition, the Activity in data set [3] is reported as 45%. The half-inhibitory concentration (IC50) in data set [4] is 3.7 nM; in data set [5], 1 nM; in data set [7], over 4 µM; in data set [8], over 4 µM.
Turning to `Cn1c(-c2ccc(N)cc2)nnc1C1(c2ccc(Cl)cc2)CCC1`, the inhibition in vivo at 10 mg/kg in data set [1] came to 77%; in data set [6] it was 12%. In addition, the EC50 in data set [2] was over 30 µM. In addition, in data set [3], the Activity was 22%. Besides, the IC50 stood at 15 nM in data set [5] and 3.1 µM in data set [7].
Take `Cn1c(-c2ccc(-c3cccnc3)cc2Cl)nnc1C1(c2ccc(Cl)cc2)CCC1`: in data set [3], the Activity amounted to 35%. This compound also gave an IC50 in data set [7] of over 4 µM.
The compound `Cn1c(-c2ccc(-c3cnccn3)cc2C(N)=O)nnc1C1(c2ccc(Cl)cc2)CCC1` gave an EC50 in data set [2] of over 30 µM. Besides, the Activity in data set [3] worked out at 4%. The IC50 was 120 nM in data set [4], 68 nM in data set [5], over 4 µM in data set [7] and over 4 µM in data set [8].
Consider `COc1cc(-c2cccnc2)ccc1-c1nnc(C2(c3ccc(Cl)cc3)CCC2)n1C`, for which the inhibition in vivo at 10 mg/kg in data set [1] stood at 82%; in data set [6], 21%. This compound returned an EC50 in data set [2] of 4.6 µM. Also, in data set [3], the Activity is given as 65%. Moreover, the IC50 was 1.5 nM in data set [4], 0.75 nM in data set [5], over 4 µM in data set [7] and over 4 µM in data set [8].
For `Cn1c(-c2ccc(-c3ccc(Cl)nn3)cc2)nnc1C1(c2ccc(Cl)cc2)CCC1`, the inhibition in vivo at 10 mg/kg in data set [1] was 40%; in data set [6], -7%. Also, the EC50 in data set [2] is over 30 µM. Moreover, the Activity in data set [3] was 14%. Also, the IC50 in data set [4] was 1.5 nM; in data set [5], 1.5 nM; in data set [7] it was over 4 µM; in data set [8] it was over 4 µM.
With `COc1ncc(-c2ccc(-c3nnc(C4(c5ccc(Cl)cc5)CCC4)n3C)cc2)c(OC)n1`, the inhibition in vivo at 10 mg/kg came out at 59% in data set [1] and 10% in data set [6]. This compound also showed an EC50 in data set [2] of over 30 µM. Further, the Activity in data set [3] worked out at 35%. The IC50 in data set [4] is 14 nM; in data set [5], 2 nM; in data set [7], over 4 µM; in data set [8] it was over 4 µM.
Turning to `Cn1c(-c2ccc(C(=O)O)cc2Cl)nnc1C1(c2ccc(Cl)cc2)CCC1`, the inhibition in vivo at 10 mg/kg was 90% in data set [1] and 38% in data set [6]. This compound also had an EC50 in data set [2] of 18 µM. Moreover, in data set [3], the Activity is listed as 28%. Moreover, the IC50 in data set [4] was 11 nM; in data set [5] it was 19 nM; in data set [7] it was over 4 µM; in data set [8], over 4 µM.
In the case of `Cn1c(-c2ccc(-c3cnoc3)cc2)nnc1C1(c2ccc(Cl)cc2)CCC1`, the EC50 in data set [2] is 23 µM. The Activity in data set [3] worked out at 29%. The IC50 in data set [4] is 1.1 nM; in data set [5], 4.1 nM; in data set [7] it was over 4 µM; in data set [8] it was over 4 µM.
Compound `Cn1c(-c2ccc(-c3cnc(O)nc3)cc2)nnc1C1(c2ccc(Cl)cc2)CCC1` showed an EC50 in data set [2] of over 30 µM. Also, the Activity in data set [3] is listed as 9%. The IC50 in data set [4] was 1.2 nM; in data set [5], 2.9 nM; in data set [7], over 4 µM; in data set [8], over 4 µM.
On to `Cn1c(-c2ccc(C(=O)NC3CC3)cc2)nnc1C1(c2ccc(Cl)cc2)CCC1`, for which the EC50 in data set [2] was over 30 µM. For the same compound, the Activity in data set [3] turned out to be 14%. Further, the IC50 is 300 nM in data set [4], 11 nM in data set [5], over 4 µM in data set [7] and over 4 µM in data set [8].
In turn, `Cn1c(-c2ccc(-c3ccccc3)cc2)nnc1C1(c2ccc(Cl)cc2)CCC1` gave an EC50 in data set [2] of 1.7 µM. Besides, the Activity in data set [3] came to 90%.
Consider `Cn1c(-c2ccc(N)cc2Cl)nnc1C1(c2ccc(Cl)cc2)CCC1`, for which the inhibition in vivo at 10 mg/kg is 90% in data set [1] and 38% in data set [6]. The compound further returned an EC50 in data set [2] of over 30 µM. For the same compound, the Activity in data set [3] was found to be 35%. Besides, the IC50 in data set [5] is under 1 nM; in data set [7], 2.3 µM.
In turn, `Cn1c(-c2ccc(C(=O)N3CCC3)cc2)nnc1C1(c2ccc(Cl)cc2)CCC1` yielded an EC50 in data set [2] of over 30 µM. In addition, in data set [3], the Activity was 10%. In addition, the IC50 in data set [4] was 250 nM; in data set [5], 62 nM; in data set [7], over 4 µM; in data set [8] it was over 4 µM.
For the compound `Clc1ccc(C2(c3nnc4n3CCCCCC4)CCC2)cc1`, the EC50 in data set [2] was determined as 1.6 µM. Moreover, the Activity in data set [3] is reported as 100%.
Consider `Cn1c(-c2ccc(-c3ccc(N)nn3)cc2)nnc1C1(c2ccc(Cl)cc2)CCC1`, for which the EC50 in data set [2] was over 30 µM. Also, the Activity in data set [3] amounted to 12%. Further, the IC50 in data set [4] was 4.8 nM; in data set [5], 1.1 nM; in data set [7], over 4 µM; in data set [8] it was over 4 µM.
In turn, `Cn1c(-c2ccc(C(=O)NC3CCC3)cc2)nnc1C1(c2ccc(Cl)cc2)CCC1` yielded an EC50 in data set [2] of over 30 µM. Besides, the Activity in data set [3] is recorded as 4%. The IC50 in data set [4] is 470 nM; in data set [5], 6.6 nM; in data set [7], over 4 µM; in data set [8], over 4 µM.
With `Cn1c(-c2ccc(C(=O)N3CCOCC3)cc2)nnc1C1(c2ccc(Cl)cc2)CCC1`, in data set [2], the concentration giving a half-maximal response (EC50) was over 30 µM. Further, the Activity in data set [3] is listed as 16%. Moreover, the IC50 in data set [4] is 560 nM; in data set [5], 200 nM; in data set [7], over 4 µM; in data set [8], over 4 µM.
